From patent publication US20130149757A1 (OPTINOL, INC., priority 2011, published 2013)

How the values were obtained:
bacterial cells = settings: cited from earlier work
[1] = test system: strains of C. saccharoperbutylacetonium; settings: Keis et al, 2001; cited from earlier work
Novel organism = assay: Carbohydrate utilization screen; format: cell-based, Clostridium beijerinckii sp. optinoii
From the text: A full carbohydrate screen was run to test whether the organism is actually N1-504. […] Rather it falls closer to (but is not identical with) C. beijerinckii.

[2] = Liquid-liquid extraction with corn oil (Karr extractor); format: physicochemical
Procedure: Two runs were conducted, each with a different flow rate.

[3] = test system: C. saccharoperbutylacetonium N1-504; settings: cited from earlier work
[4] = test system: C. saccharoperbutylacetonium; settings: reported (Keis et al.); cited from earlier work

| Compound | Carbohydrate utilization, strains of C. saccharoperbutylacetonium generally [1] | also measured |
| --- | --- | --- |
| n-butanol |  | inhibits growth (bacterial cells; […] butanol): ~100%; inhibits cell growth and fermentation (bacterial cells; butanol at a concentration of 1 percent): about 20% |
| dextrin | will utilize |  |
| glycogen | will utilize |  |
| OC[C@H]1O[C@H](O[C@H]2[C@H](O)[C@@H](O)[C@H](O)O[C@@H]2CO)[C@H](O)[C@@H](O)[C@@H]1O [maltose] | will utilize |  |
| O=C[C@H](O)[C@@H](O)[C@H](O)CO [Xylose] | will utilize | Carbohydrate utilization, Novel organism (Novel organism): does not grow |
| inulin | will utilize |  |
| CC(C)O [Isopropanol, isopropanol] |  | % extraction, Run 1 ([2]; flow rate feed 26 ml/min): 23.0%; % extraction, Run 2 ([2]; flow rate feed 39 ml/min): 21.5%; extraction in this set up ([2]; summary comment): about 21% |
| OC[C@@H](O)[C@@H](O)[C@H](O)[C@@H](O)CO [Sorbitol] |  | Carbohydrate utilization, C. saccharoperbutylacetonium N1-504 [3]: will not utilize |
| CO[C@H]1/C=C/O[C@@]2(C)Oc3c(C)c(O)c4c(O)c(c(/C=N/N5CCN(C)CC5)c(O)c4c3C2=O)NC(=O)/C(C)=C\C=C\[C@H](C)[C@H](O)[C@@H](C)[C@@H](O)[C@@H](C)[C@H](OC(C)=O)[C@@H]1C [rifampin] |  | resistance / inhibition of the organism [4]: resistant |
| OC[C@H]1O[C@@](CO)(O[C@H]2O[C@H](CO)[C@@H](O)[C@H](O)[C@H]2O)[C@@H](O)[C@@H]1O [sucrose] | will utilize |  |
| O[C@H]1[C@H](O)[C@@H](O)[C@H](O)[C@@H](O)[C@H]1O [inositol] |  | Carbohydrate utilization, C. saccharoperbutylacetonium N1-504 [3]: will not utilize |
| OC[C@H]1O[C@@H](O[C@H]2[C@H](O)[C@@H](O)C(O)O[C@@H]2CO)[C@H](O)[C@@H](O)[C@H]1O (stereo partly drawn) [lactose] | will utilize |  |
| O=C[C@H](O)[C@@H](O)[C@H](O[C@@H]1O[C@H](CO)[C@@H](O)[C@H](O)[C@H]1O)[C@H](O)CO [Cellobiose] | will utilize |  |
| OC[C@@H](O)[C@H](O)[C@H](O)[C@@H](O)CO [dulcitol] |  | Carbohydrate utilization, C. saccharoperbutylacetonium N1-504 [3]: will not utilize |
| starch | will utilize |  |
| pectin | will utilize |  |
| O=C[C@@H](O)[C@H](O)[C@H](O)CO [Arabinose] | will utilize |  |
